Patent US20150225369A1, “DDR2 INHIBITORS FOR THE TREATMENT OF OSTEOARTHRITIS” (Merck Patent GmbH, priority 2012, published 2015)

Target: T1, His-tagged human recombinant DDR-2 kinase domain (His-TEV-DDR2 467-855 aa) (Homo sapiens, UniProt Q16832)
T1 construct: His-TEV-DDR2 467-855 aa
T1 sequence (Q16832 467-855): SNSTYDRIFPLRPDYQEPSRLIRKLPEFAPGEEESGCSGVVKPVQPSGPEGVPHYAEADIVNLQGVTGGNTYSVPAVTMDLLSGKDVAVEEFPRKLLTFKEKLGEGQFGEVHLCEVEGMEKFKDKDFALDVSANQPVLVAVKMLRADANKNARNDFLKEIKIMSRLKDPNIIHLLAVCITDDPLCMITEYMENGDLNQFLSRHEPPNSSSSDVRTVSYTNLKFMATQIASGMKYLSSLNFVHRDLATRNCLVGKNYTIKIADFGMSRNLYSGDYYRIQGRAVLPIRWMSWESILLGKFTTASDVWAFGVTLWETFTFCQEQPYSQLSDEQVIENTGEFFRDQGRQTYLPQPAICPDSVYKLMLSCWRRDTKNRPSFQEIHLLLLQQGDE
Experiment: Autophosphorylation assay for biochemical activity testing of DDR2 (HTRF)
How it was run: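 Phospho-tyrosine was detected by HTRF between XL665 anti-6His and cryptate anti-phosphotyrosine PT66 antibodies, using the emission ratio. Inhibition was referenced to the inhibitor-free reaction.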

[1] = biochemical DDR2 autophosphorylation
[2] = 4 nM DDR2 kinase domain, 150 μM ATP, 150 min at 22° C.
[3] = Table 6, 4 nM DDR2 kinase domain, 150 μM ATP

SMILES | IC50 [1] | other results
CNC(=O)c1cc(Oc2ccc(CNC(=O)Nc3cc(C(F)(F)F)ccc3OC(C)(C)C(N)=O)cc2)ccn1 [compound 199, 4-(4-{3-[2-(1 -Carbamoyl-1-methyl-ethoxy)-5-trifluoromethyl-phenyl]-ureidomethyl}-phenoxy)-pyridine-2-carboxylic acid methylamide] | ≥ 100 µM | 
CNC(=O)c1cc(Oc2ccc(CNC(=O)Nc3cc(C)c(Cl)cc3OCCCCN(C)C)cc2C)ccn1 [compound 165, 4-(4-{3-[4-Chloro-2-(4-dimethylamino-butoxy)-5-methyl-phenyl]-ureidomethyl}-2-methyl-phenoxy)-pyridine-2-carboxylic acid methylamide] | 0.21 µM | 
O=C(NCc1ccc(Oc2ccncc2)cc1)Nc1ccc(Cl)c(Cl)c1 [compound 38, 1-(3,4-Dichloro-phenyl)-3-[4-(pyridin-4-yloxy)-benzyl]-urea] | 2.1 µM | 
CNC(=O)c1cc(Oc2ccc(CNC(=O)Nc3cc(C(F)(F)F)c(Cl)cc3OCC(=O)OC(C)(C)C)cc2)ccn1 [compound 107, (5-Chloro-2-{3-[4-(2-methylcarbamoyl-pyridin-4-yloxy)-benzyl]-ureido}-4-trifluoromethyl-phenoxy)-acetic acid tert-butyl ester] | 0.022 µM | 
Cc1cc(NC(=O)NCc2ccc(Oc3ccncc3)cc2)ccc1Br [compound 58, 1-(4-Bromo-3-methyl-phenyl)-3-[4-(pyridin-4-yloxy)-benzyl]-urea] | 4.7 µM | 
O=C(NCc1ccc(Oc2ccncc2)cc1)Nc1ccc(Cl)cc1C(F)(F)F [compound 40, 1-(4-Chloro-2-trifluoromethyl-phenyl)-3-[4-(pyridin-4-yloxy)-benzyl]-urea] | 9.9 µM | 
CNC(=O)c1cc(Oc2ccc(CNC(=O)Nc3cc4ccccc4cn3)cc2)ccn1 [compound 96, 4-{4-[(3-Isoquinolin-3-yl-ureido)-methyl]-phenoxy}-pyridine-2-carboxylic acid methylamide] | 0.17 µM | 
CNC(=O)c1cc(Oc2ccc(CNC(=O)Nc3cnc4ccccc4c3)cc2)ccn1 [compound 10] |  | IC50 [2]: 0.29 µM
CNC(=O)c1cc(Oc2ccc(CNC(=O)Nc3cc(C)ccc3OC)cc2)ccn1 [compound 75, 4-{4-[3-(2-Methoxy-5-methyl-phenyl)-ureidomethyl]-phenoxy}-pyridine-2-carboxylic acid methylamide] | 0.069 µM | 
Cc1ccc(NC(=O)NCc2ccc(Oc3ccncc3)cc2)cc1 [compound 18] | 4.1 µM | 
O=C(NCc1ccc(Oc2ccncc2)cc1)Nc1cc(Cl)c(Cl)cc1Cl [compound 2] | 1.4 µM | 
O=C(Nc1ccc(Cl)c(C(F)(F)F)c1)NC1(c2ccc(Oc3ccncc3)cc2)CC1 [compound 68, 1-(4-Chloro-3-trifluoromethyl-phenyl)-3-{1-[4-(pyridin-4-yloxy)-phenyl]-cyclopropyl}-urea] | 4.6 µM | 
CSc1ccc(NC(=O)NCc2ccc(Oc3ccncc3)cc2)cc1 [compound 51, 1-(4-Methylsulfanyl-phenyl)-3-[4-(pyridin-4-yloxy)-benzyl]-urea] | 10 µM | 
Cc1ccc(NC(=O)NCc2ccc(Oc3ccncc3)cc2)cc1C [compound 59, 1-(3,4-Dimethyl-phenyl)-3-[4-(pyridin-4-yloxy)-benzyl]-urea] | 2.1 µM | 
CC(=O)Nc1cc(Oc2ccc(CNC(=O)Nc3cc(C)c(Cl)cc3OCCN(C)C)cc2C)ccn1 [compound 247, N-[4-(4-{3-[4-Chloro-2-(2-dimethylamino-ethoxy)-5-methyl-phenyl]-ureidomethyl}-2-methyl-phenoxy)-pyridin-2-yl]-acetamide] | 0.006 µM | 
CNC(=O)c1cc(Oc2ccc(CNC(=O)Nc3cc(C)c(Cl)cc3OC)cc2C)ccn1 [compound 119, 4-{4-[3-(4-Chloro-2-methoxy-5-methyl-phenyl)-ureidomethyl]-2-methyl-phenoxy}-pyridine-2-carboxylic acid methylamide] | 0.21 µM | 
CNC(=O)c1cc(Oc2ccc(CNC(=O)Nc3cc4ccccc4nc3OC)cc2)ccn1 [compound 101, 4-{4-[3-(2-Methoxy-quinolin-3-yl)-ureidomethyl]-phenoxy}-pyridine-2-carboxylic acid methylamide] | 0.19 µM | 
CNC(=O)c1cc(Oc2ccc(CNC(=O)Nc3cc(C)c(Cl)cc3OCCCCN(C)C)cc2)ccn1 [compound 161, 4-(4-{3-[4-Chloro-2-(4-dimethylamino-butoxy)-5-methyl-phenyl]-ureidomethyl}-phenoxy)-pyridine-2-carboxylic acid methylamide] | 0.16 µM | 
CNC(=O)c1cc(Oc2ccc(CNC(=O)Nc3ccc(C(=O)OC)cc3OC)cc2)ccn1 [compound 82, 3-Methoxy-4-{3-[4-(2-methylcarbamoyl-pyridin-4-yloxy)-benzyl]-ureido}-benzoic acid methyl ester] | 2.9 µM | 
COc1ncc(C)cc1NC(=O)NCc1ccc(Oc2ccnc(C)c2)c(C)c1 [compound 31] |  | IC50 [2]: 0.23 µM
CNC(=O)c1cc(Oc2ccc(CNC(=O)Nc3ccnc(Cl)c3)cc2)ccn1 [compound 6] |  | IC50 [2]: 1 µM

SMILES | IC50 [1] | other results
Cc1cc(NC(=O)NCc2ccc(Oc3ccnc(N)c3)c(C)c2)c(OCCN(C)C)cc1Cl [compound 254, 1-[4-(2-Amino-pyridin-4-yloxy)-3-methyl-benzyl]-3-[4-chloro-2-(2-dimethylamino-ethoxy)-5-methyl-phenyl]-urea] | 0.031 µM | 
COc1ccc(NC(=O)NCc2ccc(Oc3ccncc3)cc2)cc1Cl [compound 60, 1-(3-Chloro-4-methoxy-phenyl)-3-[4-(pyridin-4-yloxy)-benzyl]-urea] | 2.8 µM | 
COc1nc2ccccc2cc1NC(=O)NCc1ccc(Oc2ccnc(C)c2)c(C)c1 [compound 33] |  | IC50 [2]: 1.7 µM
Cc1cc2nccc(Oc3ccc(CNC(=O)Nc4ccccc4)cc3)c2o1 [compound 249, 1-[4-(2-Methyl-furo[3,2-b]pyridin-7-yloxy)-benzyl]-3-phenyl-urea] | 0.65 µM | 
COc1ccc(NC(=O)NCc2ccc(Oc3ccncc3)cc2)cc1 [compound 17] | 13 µM | 
CCN(CC)CCOc1cc(Cl)c(C)cc1NC(=O)NCc1ccc(Oc2ccnc(C(=O)NC)c2)cc1 [compound 117, 4-(4-{3-[4-Chloro-2-(2-diethylamino-ethoxy)-5-methyl-phenyl]-ureidomethyl}-phenoxy)-pyridine-2-carboxylic acid methylamide] | 0.425 µM | 
CNC(=O)c1cc(Oc2ccc(CNC(=O)Nc3cc(C(F)(F)F)ccc3OCCN)cc2)ccn1 [compound 121, 4-(4-{3-[2-(2-Amino-ethoxy)-5-trifluoromethyl-phenyl]-ureidomethyl}-phenoxy)-pyridine-2-carboxylic acid methylamide] | 0.034 µM | 
CNC(=O)c1cc(Oc2ccc(CNC(=O)Nc3cc(C(F)(F)F)ccc3OC3CCNCC3)cc2)ccn1 [compound 115, 4-(4-{3-[2-(Piperidin-4-yloxy)-5-trifluoromethyl-phenyl]-ureidomethyl}-phenoxy)-pyridine-2-carboxylic acid methylamide] | 0.02 µM | 
CNC(=O)c1cc(Oc2ccc(CNC(=O)Nc3cc(C)c(Cl)cc3OCCN(C)C(=O)OC(C)(C)C)cc2)ccn1 [compound 244, [2-(5-Chloro-4-methyl-2-{3-[4-(2-methylcarbamoyl-pyridin-4-yloxy)-benzyl]-ureido}-phenoxy)-ethyl]-methyl-carbamic acid tert-butyl ester] | 0.62 µM | 
CC(C)c1ccc(NC(=O)NCc2ccc(Oc3ccncc3)cc2)cc1 [compound 49, 1-(4-Isopropyl-phenyl)-3-[4-(pyridin-4-yloxy)-benzyl]-urea] | 9.6 µM | 
CNC(=O)c1cc(Oc2ccc(CNC(=O)Nc3cc(C(F)(F)F)ccc3OCC(=O)OC)cc2)ccn1 [compound 92, (2-{3-[4-(2-Methylcarbamoyl-pyridin-4-yloxy)-benzyl]-ureido}-4-trifluoromethyl-phenoxy)-acetic acid methyl ester] | 0.038 µM | 
CNC(=O)c1cc(Oc2ccc(COC(=O)Nc3cc(C(F)(F)F)ccn3)cc2)ccn1 [compound 3] |  | IC50 [2]: 0.033 µM
CNC(=O)c1cc(Oc2ccc(OCC(=O)Nc3cc(C(F)(F)F)cn(C)c3=O)cc2)ccn1 [compound 4] |  | IC50 [3]: 0.57 µM
CNC(=O)c1cc(Oc2ccc(CNC(=O)Nc3cc(Cl)ccc3OC)c(C)c2)ccn1 [compound 104, 4-{4-[3-(5-Chloro-2-methoxy-phenyl)-ureidomethyl]-3-methyl-phenoxy}-pyridine-2-carboxylic acid methylamide] | 0.27 µM | 
CNC(=O)c1cc(Oc2ccc(CNC(=O)Nc3cc(OC)ccc3OC)cc2)ccn1 [compound 20] | 0.098 µM | 
Cc1cc(Oc2ccc(CNC(=O)Nc3cc4ccccc4cn3)cc2C)ccn1 [compound 34] |  | IC50 [2]: 11 µM
CNC(=O)c1cc(Oc2ccc(CNC(=O)Nc3cccnc3)cc2)ccn1 [compound 88, 4-{4-[(3-Pyridin-3-yl-ureido)-methyl]-phenoxy}-pyridine-2-carboxylic acid methylamide] | 15 µM | 
Cc1cc(NC(=O)NCc2ccc(Oc3ccncc3)c(C)c2)c(OCCN(C)C)cc1Cl [compound 246, 1-[4-Chloro-2-(2-dimethylamino-ethoxy)-5-methyl-phenyl]-3-[3-methyl-4-(pyridin-4-yloxy)-benzyl]-urea] | 0.23 µM | 
Cc1ccc(NC(=O)NCc2ccc(Oc3ccncc3)cc2)cc1Cl [compound 27] | 0.74 µM | 
Cc1ccc(C)c(NC(=O)NCc2ccc(Oc3ccncc3)cc2)c1 [compound 25] | 13 µM | 
CNC(=O)c1cc(Oc2ccc(C(O)CC(=O)Nc3ccc(Cl)c(C(F)(F)F)c3)cc2C)ccn1 (stereo not drawn) [compound 2] |  | IC50 [3]: 21 µM
